Experimental data from patent US20250164502A1, “Mutant Human Nax Proteins and Screening Methods” (Genentech, Inc., priority 2021, published 2025).

Assays:
human NaX-QTT = molecular target: T1, human NaX-QTT (Homo sapiens, UniProt Q01118, F724Q/I1189T/I1492T); test: Two-electrode voltage-clamp of Xenopus laevis oocytes expressing human NaX-QTT with blockers or multivalent cations; format: cell-based; conditions: for inhibition of NaX-QTT currents: oocytes
T1 construct: expressed in transfected cells; host or cells: Xenopus laevis oocytes injected with in vitro transcribed capped RNA
T1 sequence (Q01118 whole entry F724Q/I1189T/I1492T): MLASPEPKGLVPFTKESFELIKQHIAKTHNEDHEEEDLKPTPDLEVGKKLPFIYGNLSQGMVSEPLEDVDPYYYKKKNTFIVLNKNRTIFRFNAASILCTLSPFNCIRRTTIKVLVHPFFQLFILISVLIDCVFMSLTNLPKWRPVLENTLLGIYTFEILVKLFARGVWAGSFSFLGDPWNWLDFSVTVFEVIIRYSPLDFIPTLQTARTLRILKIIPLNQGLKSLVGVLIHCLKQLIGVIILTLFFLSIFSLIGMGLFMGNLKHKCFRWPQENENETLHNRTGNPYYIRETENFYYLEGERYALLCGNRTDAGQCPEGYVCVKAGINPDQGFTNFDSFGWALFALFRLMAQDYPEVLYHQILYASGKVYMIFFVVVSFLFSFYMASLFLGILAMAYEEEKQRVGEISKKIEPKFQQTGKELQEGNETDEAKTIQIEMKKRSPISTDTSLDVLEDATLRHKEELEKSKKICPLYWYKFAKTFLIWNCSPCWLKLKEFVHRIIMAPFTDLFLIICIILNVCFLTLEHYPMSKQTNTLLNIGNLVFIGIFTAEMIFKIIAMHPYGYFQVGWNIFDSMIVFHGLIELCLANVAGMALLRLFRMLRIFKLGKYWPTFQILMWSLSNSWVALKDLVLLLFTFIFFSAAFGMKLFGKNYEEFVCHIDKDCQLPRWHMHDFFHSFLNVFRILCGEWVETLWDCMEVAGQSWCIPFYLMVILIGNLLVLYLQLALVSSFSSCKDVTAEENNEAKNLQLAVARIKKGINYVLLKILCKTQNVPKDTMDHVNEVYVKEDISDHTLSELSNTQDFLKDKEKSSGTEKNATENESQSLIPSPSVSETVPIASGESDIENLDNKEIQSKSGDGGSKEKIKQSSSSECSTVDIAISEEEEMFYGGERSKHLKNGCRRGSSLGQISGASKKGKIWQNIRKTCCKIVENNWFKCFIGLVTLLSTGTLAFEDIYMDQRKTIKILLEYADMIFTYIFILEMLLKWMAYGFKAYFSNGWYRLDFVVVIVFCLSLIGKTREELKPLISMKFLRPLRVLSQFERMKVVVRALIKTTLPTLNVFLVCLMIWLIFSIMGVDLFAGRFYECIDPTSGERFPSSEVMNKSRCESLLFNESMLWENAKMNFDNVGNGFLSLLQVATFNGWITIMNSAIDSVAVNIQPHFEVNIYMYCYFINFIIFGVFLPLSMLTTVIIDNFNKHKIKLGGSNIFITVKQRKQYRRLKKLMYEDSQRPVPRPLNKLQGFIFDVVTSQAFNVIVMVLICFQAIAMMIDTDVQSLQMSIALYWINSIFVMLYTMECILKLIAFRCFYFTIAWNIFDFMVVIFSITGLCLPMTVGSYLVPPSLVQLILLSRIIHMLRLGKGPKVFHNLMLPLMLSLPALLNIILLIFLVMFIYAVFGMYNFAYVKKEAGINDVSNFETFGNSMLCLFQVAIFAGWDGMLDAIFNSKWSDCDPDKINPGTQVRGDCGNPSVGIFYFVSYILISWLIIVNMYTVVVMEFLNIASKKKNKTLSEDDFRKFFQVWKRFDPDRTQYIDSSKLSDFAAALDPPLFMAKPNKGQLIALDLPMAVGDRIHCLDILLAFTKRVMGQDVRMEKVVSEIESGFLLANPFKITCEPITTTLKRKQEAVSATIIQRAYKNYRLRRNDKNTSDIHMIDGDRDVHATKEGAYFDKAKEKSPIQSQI
Procedure: FIGS. 5A-C show pharmacology of the human NaX-QTT channel. FIG. 5A, left and middle panels, show representative I-V currents from HEK293 cells expressing human NaX-QTT with indicated extracellular monovalent cations with or without indicated amounts of CaCl2 in the extracellular solution. Voltage ramp from −80 to +80 mV was applied.
(§1) Oocytes were prepared as previously described^68. Healthy-looking stage V-VI oocytes were injected with 2.5-40 ng of RNA (in 5-41 nL) using a Nanoliter 2010 injector (World Precision Instruments). When excluding one or more construct, an equivalent volume of nuclease-free water was added to maintain a constant RNA concentration across different construct combinations. Injected oocytes were kept at 18° C., 140 rpm, in ND96 supplemented with 50 μg/mL gentamicin and 50 μg/mL tetracycline (in mM: 96 NaCl, 2 KCl, 1 MgCl2, 1.8 CaCl2), 2.5 sodium pyruvate, 0.5 theophylline, 5 HEPES; pH 7.4 with NaOH) for two to five days. Two-electrode voltage-clamp measurements were performed at room temperature using a Warner OC-725C Oocyte Clamp amplifier (Warner Instrument Corp, USA) and under constant perfusion with ND96 solution (in mM: 96 NaCl, 2 KCl, 1 MgCl2, 1.8 CaCl2, 5 HEPES; pH 7.4 with NaOH). For ion selectivity experiments, external solutions contained 115 mM of test cations as chloride salts, 1.2 mM CaCl2, 2 mM MgCl2, 5 mM HEPES (pH 7.4 with the corresponding hydroxide). Data acquisition was performed using a Digidata 1550 digitizer (Molecular devices; sampled at 10 kHz) and pCLAMP 10 software (Molecular Devices). Microelectrodes from borosilicate glass capillaries (Harvard Apparatus) were prepared to have resistances around 0.2-1.0 MQ2 using a P-1000 Flaming/Brown Micropipette Puller System (Sutter Instrument) and backfilled with 3 M KCl. Aconitine and veratridine (Alomone Labs) were dissolved in DMSO to make 50 mM stocks, and were further diluted to 300 and 100 μM in ND96 for electrophysiological experiments. Other NaV activators (Alomone Labs; FIGS. 8A-D) were dissolved in water to make stock solutions. The voltage dependence of ion current was determined using a protocol consisting of steps from a holding potential of 0 mV to voltages ranging from +80 to −100 mV for 1 s in 20 mV increment.

Xenopus laevis oocytes [1] = test: Current amplitude of Xenopus laevis oocytes expressing the constructs (function of construct); format: cell-based; conditions: voltage-step protocols
Procedure: (*p<0.05; **p<0.01; ****p<0.0001; one-way ANOVA, Dunnett's test against NaX.)
as §1, with “Data acquisition was performed using a Digidata 1550 digitizer (Molecular devices; sampled at 10 kHz) and pCLAMP 10 software (Molecular Devices). Microelectrodes from borosilicate glass capillaries (Harvard Apparatus) were prepared to have resistances around 0.2-1.0 MQ2 using a P-1000 Flaming/Brown Micropipette Puller System (Sutter Instrument) and backfilled with 3 M KCl. Aconitine and veratridine (Alomone Labs) were dissolved in DMSO to make 50 mM stocks, and were further diluted to 300 and 100 μM in ND96 for electrophysiological experiments. Other NaV activators (Alomone Labs; FIGS. 8A-D) were dissolved in water to make stock solutions.” left out, “increment. […]” for “increment.”

HEK293T cells = test: Whole-cell patch clamp of HEK293T cells expressing NaX-QTT, reversal potential and ion selectivity; format: cell-based, human
Procedure: HEK293T cells expressing NaX- or NaX-QTT-eGFP-2×FLAG were seeded on glass cover slips an hour before whole-cell patch-clamping experiments. For a more physiological condition (FIGS. 4D and 7B), the extracellular solution contained 150 mM NaCl, 5 mM KCl, 0.5 mM CaCl2, 1.2 mM MgCl2, 10 mM HEPES, and 13 mM D-(+)-glucose (pH 7.4) with NaOH, ˜320 mOsm/L, and the intracellular solution contained 140 mM CsCl, 10 mM CsF, 5 mM EGTA, 10 mM HEPES, and 2 mM Na2ATP (pH 7.2) with CsOH, ˜304 mOsm/L. To determine if NaX-QTT was cation-permeable, we first substituted all extracellular cations with NMDG^+ (FIG. 4E). Extracellular solution contained 150 mM NMDG and 10 mM HEPES (D-(+)-glucose was added accordingly to achieve osmolarity ˜325 mOsm/L and pH was adjusted to 7.4 with hydrochloric acid). To determine if NaX-QTT was anion-permeable, we substituted all Cl^− ions in both intra- and extracellular solutions with the large anion methanesulfonate (MS^−) (FIG. 15C). The extracellular solution contained 150 mM NaMS and 10 mM HEPES (D-(+)-glucose was added accordingly to achieve osmolarity ˜325 mOsm/L, and pH was adjusted to 7.4 with NaOH). The intracellular solution contained 136 mM NaMS, 10 mM NaF, 5 mM EGTA, 10 mM HEPES, and 2 mM Na2ATP (pH 7.2 with NaOH, ˜309 mOsm/L). The extracellular NMDG solution contained 150 NMDG and 10 mM HEPES (D-(+)-glucose was added accordingly to achieve osmolarity ˜325 mOsm/L, and pH was adjusted to 7.4 with methanesulfonic acid).
For ion-selectivity experiments (FIGS. 4E and 5A) (i) involving monovalent cations, the extracellular solution contained 150 mM XCl, 10 mM HEPES, and D-(+)-glucose was added accordingly to achieve osmolarity ˜325 mOsm/L, and the pH was adjusted to 7.4 with XOH, where X indicates the cation of interest (Na^+, K^+, Li+ or Cs+); (ii) involving Ca^2+, the extracellular solution contained 110 mM CaCl2, 10 mM HEPES, and D-(+)-glucose was added accordingly to achieve osmolarity ˜325 mOsm/L, and the pH was adjusted to 7.4 with Ca(OH)2; (iii) the intracellular solution contained 136 mM NaCl, 10 mM NaF, 5 mM EGTA, 10 mM HEPES, and 2 mM Na2ATP (pH 7.2) with NaOH, ˜309 mOsm/L.
For data analysis, raw current traces were typically filtered using 8-pole Bessel low-pass filter at 500-800 Hz. […] For ion-selectivity experiments performed with Na^+ intracellular solution (FIGS. 4E and 5A), liquid junction potential (LJP) was measured with reference to the Na^+ intracellular solution and corrected after recording. Relative ion permeabilities (PNa/PX) were calculated using the equation PX/PNa=[Na^+]IC exp(ErevF/RT)/[X^+]EC (X=Na, K, Li or Cs), where F is Faraday's constant, R is the gas constant, […], and Erevs were measured from the −80- to +80-m V ramp (corrected for LJP).

[2] = reported for pathogenic mutation; cited from earlier work
Xenopus laevis oocytes [3] = test: Voltage dependence of activation and steady-state inactivation of mutant NaV channels; format: cell-based; conditions: NaV1.7 mutant

C=C[C@H]1C[N@@]2CC[C@H]1C[C@@H]2[C@@H](O)c1ccnc2ccc(OC)cc12 [quinidine]
inhibition of NaX-QTT currents (human NaX-QTT; at high μM concentrations): equally potent inhibitors

COc1ccccc1OCC(O)CN1CCN(CC(=O)Nc2c(C)cccc2C)CC1 (stereo not shown) [ranolazine]
inhibition of NaX-QTT currents (human NaX-QTT; at concentrations up to 300 μM): strong inhibitory effects were not observed

NC1=N[C@H](O)[C@H]2[C@H]3O[C@]4(O)O[C@@H]([C@@H](O)[C@@]2(N1)[C@@H]4O)[C@]3(O)CO [tetrodotoxin]
inhibitory effect on NaX-QTT (human NaX-QTT): inhibitory effects

Construct 24: triple-mutant NaX channel construct (F724Q-I1189T-I1492T) with polar substitutions at three S6-gate lining positions
ionic currents of the construct expressed alone (Xenopus laevis oocytes [1]): robust ionic currents | reversal potential (HEK293T cells; HEK293T cells, all extracellular cations replaced with NMDG): below −100 mV | reversal potential (HEK293T cells; HEK293T cells, physiological extracellular solution): +5 mV | discrimination between monovalent cations (HEK293T cells; extracellular monovalent cations 150 mM): does not effectively discriminate | reversal potential (HEK293T cells; symmetrical NaCl/NaCl, ramp −80 to +80 mV, 150 mM Na^+ intracellular): ~0 mV

Construct 25: L390E/I1189E/I1492E triple-mutant NaX channel construct
ionic currents of the construct expressed alone (Xenopus laevis oocytes [1]): much lower current amplitudes

Ser211Pro: pathogenic Ser211Pro mutation in NaV1.7
hyperpolarization of channel activation [2]: −12 mV

Ser1269Phe: Ser1269Phe substitution in NaV1.7
depolarizing shift of activation (Xenopus laevis oocytes [3]): ~8 mV

ΔLeu966: in-frame DII-S6 deletion in NaV1.7
hyperpolarization of activation (Xenopus laevis oocytes [3]): −16 mV

B1: Ser209Phe: pathogenic Ser209Phe mutation in KCNQ1 (protein, UniProt P51787 1-676, looked up, variant S209F)
Potassium voltage-gated …: MAAASSPPRAERKRWGWGRLPGARRGSAGLAKKCPFSLELAEGGPAGGALYAPIAPGAPGPAPPASPAAPAAPPVASDLGPRPPVSLDPRVSIYSTRRPVLARTHVQGRVYNFLERPTGWKCFVYHFAVFLIVLVCLIFSVLSTIEQYAALATGTLFWMEIVLVVFFGTEYVVRLWSAGCRSKYVGLWGRLRFARKPISIIDLIVVVAFMVVLCVGSKGQVFATSAIRGIRFLQILRMLHVDRQGGTWRLLGSVVFIHRQELITTLYIGFLGLIFSSYFVYLAEKDAVNESGRVEFGSYADALWWGVVTVTTIGYGDKVPQTWVGKTIASCFSVFAISFFALPAGILGSGFALKVQQKQRQKHFNRQIPAAASLIQTAWRCYAAENPDSSTWKIYIRKAPRSHTLLSPSPKPKKSVVVKKKKFKLDKDNGVTPGEKMLTVPHITCDPPEERRLDHFSVDGYDSSVRKSPTLLEVSMPHFMRTNSFAEDLDLEGETLLTPITHISQLREHHRATIKVIRRMQYFVAKKKFQQARKPYDVRDVIEQYSQGHLNLMVRIKELQRRLDQSIGKPSLFISVSEKSKDRGSNTIGARLNRVEDKVTQLDQRLALITDMLHQLLSLHGGSTPGSGGPPREGGAHITQPCGSGGSVDPELFLPSNTLPTYEQLTVPRRGPDEGS
hyperpolarization of channel activation [2]: −45 mV
